In ChEMBL document CHEMBL1201862, “PubChem BioAssay data set” (2004):
Calls of active or inactive are those of the source.

Columns and labels:
[1] = biological target: Nonstructural protein 1 (Influenza A virus, UniProt Q194T2); type: functional, Influenza A virus (A/California/07/2009(H1N1))
[2] = biological target: T1, Aminopeptidase N (Plasmodium falciparum FcB1/Columbia, UniProt O96935); test: P. falciparum M1AAP inhibitors, biochemical, fluorogenic H-Leu-NHMec substrate, 1536-well (AID 1445); design: species or system Plasmodium falciparum 3D7, 3D7
T1 sequence (O96935 whole entry): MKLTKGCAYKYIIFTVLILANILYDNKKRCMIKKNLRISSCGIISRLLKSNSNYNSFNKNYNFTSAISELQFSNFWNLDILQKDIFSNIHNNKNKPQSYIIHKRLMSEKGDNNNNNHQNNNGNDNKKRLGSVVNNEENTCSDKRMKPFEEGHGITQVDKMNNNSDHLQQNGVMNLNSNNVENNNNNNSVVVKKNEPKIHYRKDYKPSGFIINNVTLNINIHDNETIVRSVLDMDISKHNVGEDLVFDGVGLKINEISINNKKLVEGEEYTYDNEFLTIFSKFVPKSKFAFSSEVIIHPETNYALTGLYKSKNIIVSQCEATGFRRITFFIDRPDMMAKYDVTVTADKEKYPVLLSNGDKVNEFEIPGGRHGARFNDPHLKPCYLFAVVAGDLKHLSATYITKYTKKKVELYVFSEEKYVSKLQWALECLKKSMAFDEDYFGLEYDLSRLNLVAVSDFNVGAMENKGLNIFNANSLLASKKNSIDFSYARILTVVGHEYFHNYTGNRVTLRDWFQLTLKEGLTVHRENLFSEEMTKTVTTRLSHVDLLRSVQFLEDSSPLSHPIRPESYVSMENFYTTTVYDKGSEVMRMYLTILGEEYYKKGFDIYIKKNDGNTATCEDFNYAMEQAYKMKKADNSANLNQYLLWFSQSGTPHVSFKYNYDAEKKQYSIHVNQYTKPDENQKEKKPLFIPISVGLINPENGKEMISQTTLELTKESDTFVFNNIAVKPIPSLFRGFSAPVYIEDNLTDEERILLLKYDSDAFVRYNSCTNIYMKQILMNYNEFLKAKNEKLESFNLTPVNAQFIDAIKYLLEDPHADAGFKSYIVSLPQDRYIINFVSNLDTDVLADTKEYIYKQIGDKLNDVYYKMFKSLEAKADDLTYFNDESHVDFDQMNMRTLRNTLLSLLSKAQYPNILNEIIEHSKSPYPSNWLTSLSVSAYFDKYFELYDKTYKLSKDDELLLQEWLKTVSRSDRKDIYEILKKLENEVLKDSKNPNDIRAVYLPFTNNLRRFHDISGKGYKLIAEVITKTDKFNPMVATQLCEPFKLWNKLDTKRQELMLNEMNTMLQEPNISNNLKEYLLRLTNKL

[3] = biological target: Voltage-dependent T-type calcium channel subunit alpha-1H (Homo sapiens, UniProt O95180); type: functional;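 note: channel activity triggered by adding a high calcium stimulation buffer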
[4] = biological target: T2, Polyadenylate-binding protein 1 (Homo sapiens, UniProt P11940); test: PABP1 MLLE–PAM2 interaction inhibitors, dose response, miRNA deadenylation inhibitor project, biochemical, fluorescence polarization, Cy5-PAM2 peptide, secondary (AID 602260); type: functional; settings: read-out: IC50_Mean
T2 sequence (P11940 whole entry): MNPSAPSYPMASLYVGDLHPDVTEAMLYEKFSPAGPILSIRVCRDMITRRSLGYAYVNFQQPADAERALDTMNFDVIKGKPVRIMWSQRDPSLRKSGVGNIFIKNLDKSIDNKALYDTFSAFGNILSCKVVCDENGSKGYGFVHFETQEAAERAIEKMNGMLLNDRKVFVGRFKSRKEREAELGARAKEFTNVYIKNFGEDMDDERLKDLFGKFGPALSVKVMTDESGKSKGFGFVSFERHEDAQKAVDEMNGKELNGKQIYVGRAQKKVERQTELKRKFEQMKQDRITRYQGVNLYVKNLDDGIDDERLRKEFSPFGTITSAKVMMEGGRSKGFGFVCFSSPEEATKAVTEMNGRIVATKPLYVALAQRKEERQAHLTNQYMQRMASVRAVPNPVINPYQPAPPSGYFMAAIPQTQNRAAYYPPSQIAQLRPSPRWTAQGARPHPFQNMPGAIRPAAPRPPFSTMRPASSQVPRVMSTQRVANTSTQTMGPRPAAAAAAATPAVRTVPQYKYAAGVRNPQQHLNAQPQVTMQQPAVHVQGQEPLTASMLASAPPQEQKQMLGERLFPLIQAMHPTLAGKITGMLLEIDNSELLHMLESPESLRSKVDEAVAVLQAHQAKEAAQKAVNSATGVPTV

[5] = biological target: T2, Polyadenylate-binding protein 1; test: PABP1 MLLE–PAM2 binding inhibitor potency, dose response, biochemical, fluorescence polarization, FITC-PAM2 peptide (AID 602259); type: functional; settings: read-out: IC50_Mean
[6] = biological target: T3, Fatty acid synthase (Homo sapiens, UniProt P49327); test: FAS thioesterase domain inhibitors, dose response, biochemical, kinetic fluorescence intensity (AID 624326); type: functional;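 note: rate of fluorescence rise from hydrolysis of a fluorogenic O-methyl fluorescein ester substrate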
T3 sequence (P49327 whole entry, the tested form may be a part): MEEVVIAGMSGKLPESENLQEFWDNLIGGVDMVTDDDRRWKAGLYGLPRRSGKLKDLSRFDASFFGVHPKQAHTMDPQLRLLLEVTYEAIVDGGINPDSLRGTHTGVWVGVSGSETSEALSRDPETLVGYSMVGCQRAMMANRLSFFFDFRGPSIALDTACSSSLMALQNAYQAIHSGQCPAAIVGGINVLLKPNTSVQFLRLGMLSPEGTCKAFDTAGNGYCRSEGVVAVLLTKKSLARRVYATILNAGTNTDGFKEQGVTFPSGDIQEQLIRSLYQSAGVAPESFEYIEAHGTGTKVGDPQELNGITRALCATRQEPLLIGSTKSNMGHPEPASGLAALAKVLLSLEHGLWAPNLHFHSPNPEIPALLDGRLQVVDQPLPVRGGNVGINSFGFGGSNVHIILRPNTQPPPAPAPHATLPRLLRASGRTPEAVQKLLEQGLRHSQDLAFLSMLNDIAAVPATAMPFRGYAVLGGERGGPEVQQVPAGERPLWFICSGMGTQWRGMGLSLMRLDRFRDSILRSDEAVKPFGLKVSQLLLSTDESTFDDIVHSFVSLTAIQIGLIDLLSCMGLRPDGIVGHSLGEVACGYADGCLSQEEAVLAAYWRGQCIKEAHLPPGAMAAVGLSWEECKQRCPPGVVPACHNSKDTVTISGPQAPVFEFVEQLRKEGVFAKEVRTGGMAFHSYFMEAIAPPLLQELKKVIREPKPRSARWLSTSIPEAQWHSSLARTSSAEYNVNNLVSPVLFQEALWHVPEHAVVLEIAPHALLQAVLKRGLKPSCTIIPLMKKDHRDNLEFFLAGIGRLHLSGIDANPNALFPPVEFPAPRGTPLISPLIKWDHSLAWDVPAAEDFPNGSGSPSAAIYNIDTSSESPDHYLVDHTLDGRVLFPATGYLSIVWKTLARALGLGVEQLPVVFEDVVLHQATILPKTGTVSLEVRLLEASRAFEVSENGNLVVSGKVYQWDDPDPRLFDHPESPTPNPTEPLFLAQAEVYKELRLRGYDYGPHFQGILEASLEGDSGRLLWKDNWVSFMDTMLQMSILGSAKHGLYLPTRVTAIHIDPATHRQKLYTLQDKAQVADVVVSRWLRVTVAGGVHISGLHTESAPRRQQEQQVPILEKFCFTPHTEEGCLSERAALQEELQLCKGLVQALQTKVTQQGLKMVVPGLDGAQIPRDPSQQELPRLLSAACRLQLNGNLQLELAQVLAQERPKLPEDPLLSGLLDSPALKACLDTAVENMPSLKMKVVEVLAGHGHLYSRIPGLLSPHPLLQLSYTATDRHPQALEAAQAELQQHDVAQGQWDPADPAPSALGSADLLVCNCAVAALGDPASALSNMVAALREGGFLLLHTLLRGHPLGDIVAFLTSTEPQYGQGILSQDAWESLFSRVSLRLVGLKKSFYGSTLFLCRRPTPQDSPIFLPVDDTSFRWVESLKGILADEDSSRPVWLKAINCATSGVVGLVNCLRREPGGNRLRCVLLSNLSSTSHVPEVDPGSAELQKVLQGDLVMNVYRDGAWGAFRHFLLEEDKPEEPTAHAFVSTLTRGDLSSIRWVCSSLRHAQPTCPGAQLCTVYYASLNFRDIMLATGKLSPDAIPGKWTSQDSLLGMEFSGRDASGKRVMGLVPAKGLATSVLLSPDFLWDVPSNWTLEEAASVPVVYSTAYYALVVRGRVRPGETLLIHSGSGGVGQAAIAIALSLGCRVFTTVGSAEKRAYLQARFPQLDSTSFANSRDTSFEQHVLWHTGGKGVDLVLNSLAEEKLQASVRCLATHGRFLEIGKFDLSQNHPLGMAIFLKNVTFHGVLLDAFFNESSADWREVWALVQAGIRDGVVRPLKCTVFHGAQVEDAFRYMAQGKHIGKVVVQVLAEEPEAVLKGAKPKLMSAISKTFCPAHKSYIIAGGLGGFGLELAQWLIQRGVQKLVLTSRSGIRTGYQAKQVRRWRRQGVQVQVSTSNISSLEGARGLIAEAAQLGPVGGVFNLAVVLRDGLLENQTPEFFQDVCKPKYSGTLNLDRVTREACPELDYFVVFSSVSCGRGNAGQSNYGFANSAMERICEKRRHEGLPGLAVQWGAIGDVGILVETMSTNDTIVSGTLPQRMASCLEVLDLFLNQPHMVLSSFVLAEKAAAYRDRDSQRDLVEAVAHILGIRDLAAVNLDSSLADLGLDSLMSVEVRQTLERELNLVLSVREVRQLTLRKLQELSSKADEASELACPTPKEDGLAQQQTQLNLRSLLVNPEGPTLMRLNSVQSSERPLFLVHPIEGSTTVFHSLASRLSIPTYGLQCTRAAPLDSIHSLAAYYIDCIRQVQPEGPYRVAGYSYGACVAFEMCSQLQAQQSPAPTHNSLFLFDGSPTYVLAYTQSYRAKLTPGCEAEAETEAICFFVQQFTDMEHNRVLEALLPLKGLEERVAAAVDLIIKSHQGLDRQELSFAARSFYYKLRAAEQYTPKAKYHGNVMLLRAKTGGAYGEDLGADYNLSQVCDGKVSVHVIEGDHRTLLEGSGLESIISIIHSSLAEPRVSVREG

[7] = biological target: T3, Fatty acid synthase; test: FAS thioesterase domain inhibitors, dose response, biochemical, endpoint fluorescence intensity, uHTS hits (AID 624327); type: functional;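 note: fluorescence from hydrolysis of an O-methyl fluorescein acyl ester substrate by the enzyme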
[8] = microbe, parasite or virus in culture; type: functional; settings: Mycobacterium tuberculosis
[9] = biological target: T4, Estrogen receptor (Homo sapiens, UniProt P03372);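 note: potency for inhibiting coactivator peptide recruitment to the receptor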
T4 sequence (P03372 whole entry): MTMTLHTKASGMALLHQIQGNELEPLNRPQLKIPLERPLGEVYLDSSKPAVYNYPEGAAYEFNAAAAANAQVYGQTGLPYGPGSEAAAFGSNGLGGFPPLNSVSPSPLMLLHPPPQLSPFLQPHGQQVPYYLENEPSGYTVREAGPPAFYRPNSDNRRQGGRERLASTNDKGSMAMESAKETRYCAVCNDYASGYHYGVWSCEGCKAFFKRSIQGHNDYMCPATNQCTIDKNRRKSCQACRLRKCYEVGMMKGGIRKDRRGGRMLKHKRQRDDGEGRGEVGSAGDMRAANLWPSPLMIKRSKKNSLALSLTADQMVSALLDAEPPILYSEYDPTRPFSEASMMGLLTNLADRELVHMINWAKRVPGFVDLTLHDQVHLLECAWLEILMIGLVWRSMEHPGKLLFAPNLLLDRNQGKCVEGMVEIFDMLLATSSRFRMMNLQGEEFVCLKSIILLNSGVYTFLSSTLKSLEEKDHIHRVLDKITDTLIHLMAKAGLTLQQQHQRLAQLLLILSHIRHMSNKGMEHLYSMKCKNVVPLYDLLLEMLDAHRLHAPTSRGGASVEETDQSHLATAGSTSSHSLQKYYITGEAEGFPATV

[10] = biological target: T5, DNA dC->dU-editing enzyme APOBEC-3G (Homo sapiens, UniProt Q9HC16); test: Dose Response confirmation of small molecule APOBEC3G DNA Deaminase Inhibitors via a fluorescence-based single-stranded DNA deaminase assay. [Related pubchem assays (depositor defined):AID493012, AID493028]; type: functional
T5 sequence (Q9HC16 whole entry): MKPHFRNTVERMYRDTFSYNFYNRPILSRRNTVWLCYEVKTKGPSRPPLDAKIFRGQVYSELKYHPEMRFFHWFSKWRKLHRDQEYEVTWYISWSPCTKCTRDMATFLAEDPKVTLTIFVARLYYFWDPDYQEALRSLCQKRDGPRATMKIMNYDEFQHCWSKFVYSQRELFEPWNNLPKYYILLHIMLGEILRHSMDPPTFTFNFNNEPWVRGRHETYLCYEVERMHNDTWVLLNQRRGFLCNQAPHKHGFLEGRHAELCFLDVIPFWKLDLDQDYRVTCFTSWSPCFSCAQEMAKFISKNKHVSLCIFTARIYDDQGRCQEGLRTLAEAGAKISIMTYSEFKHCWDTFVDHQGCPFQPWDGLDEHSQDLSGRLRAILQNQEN

[11] = biological target: T6, DNA dC->dU-editing enzyme APOBEC-3A (Homo sapiens, UniProt P31941); test: APOBEC3A DNA deaminase inhibitors, dose response, biochemical (AID 504722); type: functional
T6 sequence (P31941 whole entry): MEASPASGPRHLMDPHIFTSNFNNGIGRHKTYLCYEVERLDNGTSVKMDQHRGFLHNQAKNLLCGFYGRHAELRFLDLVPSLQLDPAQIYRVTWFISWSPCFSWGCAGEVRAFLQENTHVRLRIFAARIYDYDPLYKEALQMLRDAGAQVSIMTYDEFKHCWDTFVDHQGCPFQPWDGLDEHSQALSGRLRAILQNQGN

[12] = biological target: T6, DNA dC->dU-editing enzyme APOBEC-3A; test: Dose Response confirmation of small molecule APOBEC3A DNA Deaminase Inhibitors via a fluorescence-based single-stranded DNA deaminase assay. [Related pubchem assays (depositor defined):AID493011, AID493024]; type: functional
[13] = biological target: T5, DNA dC->dU-editing enzyme APOBEC-3G; type: functional
[14] = growth suppression of PTEN-null colon cells, dose response, cell-based, HCT116 PTEN knockout (AID 1047); type: functional;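 note: HCT116 colon tumor cells with PTEN knocked out; cells exposed to compound for 60 hours before readout; potency for loss of cell viability measured by luminescence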
[15] = growth suppression of beta-catenin-knockout colon cells, dose response, cell-based, HCT116, human colon tumor (AID 1045); type: functional;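 note: HCT116 colon tumor cells with beta catenin knocked out; cells exposed to compound for 60 hours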
[16] = biological target: T7, Leucine aminopeptidase (Plasmodium falciparum 3D7, UniProt Q8IL11); test: P. falciparum M17LAP inhibitors, primary screen, biochemical, fluorogenic H-Leu-NHMec substrate, 1536-well (AID 1619); type: functional
T7 sequence (Q8IL11 whole entry): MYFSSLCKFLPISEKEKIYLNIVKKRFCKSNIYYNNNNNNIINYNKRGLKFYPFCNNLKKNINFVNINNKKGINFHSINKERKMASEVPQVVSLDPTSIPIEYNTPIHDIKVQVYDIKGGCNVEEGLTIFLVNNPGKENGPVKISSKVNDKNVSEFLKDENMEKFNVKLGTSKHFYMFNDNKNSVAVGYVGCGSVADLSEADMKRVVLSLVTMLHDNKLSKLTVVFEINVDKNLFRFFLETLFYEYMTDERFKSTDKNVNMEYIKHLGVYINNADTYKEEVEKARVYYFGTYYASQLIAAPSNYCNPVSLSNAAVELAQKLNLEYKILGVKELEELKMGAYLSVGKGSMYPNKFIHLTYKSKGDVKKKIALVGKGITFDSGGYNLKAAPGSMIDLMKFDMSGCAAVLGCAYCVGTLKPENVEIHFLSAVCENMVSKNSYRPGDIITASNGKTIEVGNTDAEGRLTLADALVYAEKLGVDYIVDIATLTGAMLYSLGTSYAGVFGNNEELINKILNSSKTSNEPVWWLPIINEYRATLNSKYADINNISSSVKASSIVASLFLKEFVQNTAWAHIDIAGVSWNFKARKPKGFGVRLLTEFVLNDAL

Chain of Nonstructural protein 1 (Q194T2 whole entry): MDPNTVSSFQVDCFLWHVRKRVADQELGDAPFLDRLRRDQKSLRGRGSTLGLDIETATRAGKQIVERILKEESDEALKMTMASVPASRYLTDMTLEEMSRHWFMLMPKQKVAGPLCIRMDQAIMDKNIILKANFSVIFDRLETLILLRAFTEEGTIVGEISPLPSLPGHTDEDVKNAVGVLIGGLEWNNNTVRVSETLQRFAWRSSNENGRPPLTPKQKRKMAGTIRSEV

In the case of `CCN1C(=O)/C(=C/NNC(=O)c2ccncc2)C(=O)NC1=S`, the IC50 [1] was 13.3 µM (active) and the IC50 [2] was 85.1 µM (active).
For `Cc1cccc(NC(=O)CSc2nc3ccccc3o2)c1`, the EC50 [3] was 4.44 µM (active).
For `CCC1CCCCN1C(=S)NC(=O)c1cccc([N+](=O)[O-])c1` (stereo unspecified), the IC50 [4] was > 66 µM (inactive) and the IC50 [5] was > 66 µM (inactive).
For `CCNS(=O)(=O)c1ccc(CCC(=O)NCc2ccccc2)cc1`, the IC50 [2] was 60.1 µM (active).
In the case of `O=C(CSc1ccc([N+](=O)[O-])cn1)Nc1ccc2c(c1)OCO2`, the IC50 [6] was 0.951 µM (active) and the IC50 [7] was 0.981 µM (active).
For `NC(Cc1ccc([N+](=O)[O-])cc1)=NOC(=O)c1ccc2ccccc2c1`, the CC50 [8] was 33 µM (active) and the IC50 [9] was > 50 µM (not active).
With `O=S(=O)(c1cccc(-c2nnc(S)n2Cc2ccccc2)c1)N1CCOCC1` the IC50 [10] was 4.28 µM (active) and the IC50 [11] was > 100 µM (inactive).
In the case of `COc1ccccc1OCC(=O)Sc1ccc(C)cc1`, the IC50 [4] was > 66 µM (inactive) and the IC50 [5] was > 66 µM (inactive).
In the case of `O=C(CSc1ccccn1)Nc1cccc2ccccc12`, the IC50 [12] was 8.82 µM (active) and the IC50 [13] was 6 µM (active).
For `COc1ccc(C2NC(=O)c3sc(=S)n(-c4ccccc4)c3N2)cc1` (stereo unspecified), the EC50 [14] was 21.6 µM (active), the EC50 [15] was 22.6 µM (active) and the EC50 [3] was 1.23 µM (active).
In the case of `COc1cc(CNc2nc[nH]n2)cc(Br)c1OC`, the IC50 [16] was 8.2 µM (active).
For `CC(=O)Nc1ccc2nc(-c3ccccn3)[nH]c2c1`, the IC50 [2] was 94 µM (active).
In the case of `O=C(NNC(=S)NCCc1ccccc1)c1ccc(Br)s1`, the IC50 [2] was 9.19 µM (active).
For `O=[N+]([O-])c1cc(S(=O)(=O)Nc2cccc(C(F)(F)F)c2)ccc1-n1nnc2ccccc21`, the IC50 [6] was 4.72 µM (active), the IC50 [7] was 7.12 µM (active) and the EC50 [3] was 3.52 µM (active).
For `O=[N+]([O-])c1ccc(S(=O)(=O)Nc2ccc(-c3ccccc3)cc2)cc1`, the IC50 [6] was 6.47 µM (active) and the IC50 [7] was 5.95 µM (active).
With `C/C(=N\NC(=S)NCCc1ccccc1)c1cccc(Br)c1` the IC50 [4] was > 66 µM (inactive) and the IC50 [5] was > 66 µM (inactive).
With `O=[N+]([O-])c1ccccc1/C=N/n1c(S)nnc1-c1cccnc1` the IC50 [10] was 3.08 µM (active) and the IC50 [11] was > 100 µM (inactive).
